Results on 13 molecules are retold here after patent EP0167459B1, “2-Amino oxazolines and process for their preparation” (priority 1984, dated 1986).

The target of one data set is NAd (Homo sapiens, UniProt P23975). The data set can be described thus: Inhibition of neurotransmitter uptake in vitro, noradrenaline. In kind it is cell-based. To be noted: NAd = Noradrénaline; for IC50: read-out: UPTAKE NEUROTRANSMETTEUR IN VITRO IC 50 M NAd.
The target in a further data set is 5-HT (Homo sapiens, UniProt P31645). The data set can be described thus: Inhibition of neurotransmitter uptake in vitro, 5-HT. The note with it: for IC50: 5-HT = (so in the source), read-out: UPTAKE NEUROTRANSMETTEUR IN VITRO IC 50 M 5-HT. In kind it is cell-based.
The next data set deals with DA (Homo sapiens, UniProt Q01959). The data set can be described thus: Inhibition of neurotransmitter uptake in vitro, dopamine. To be noted: for IC50: read-out: UPTAKE NEUROTRANSMETTEUR IN VITRO IC 50 M DA; for UPTAKE NEUROTRANSMETTEUR IN VITRO IC 50 M DA: DA = Dopamine. It is filed as cell-based.
Another data set has as its target RECEPTEURS α2. Nature of the data set: Affinity for the α2 receptor in vitro. The note with it: read-out: AFFINITE RECEPTEURS α2 IN VITRO IC […]; read-out: […] […] α2 IN VITRO IC 50 M. It is filed as binding.
Data set [1] can be described thus: Motor activity (exploration) in the mouse. It is filed as in vivo, souris.
For data set [2] the following is noted: mouse, doses 0,75 à 20 mg/kg.
Data set [3] is described as follows: Cardiovascular activity in the anaesthetised dog. In kind it is in vivo, chien. The source says: Les 2-amino-oxazolines selon l'invention se caractérisent par des propriétés pharmacologiques intéressantes, et notamment par des propriétés anti-dépressives, hypertensives et analeptiques vasculaires. Elles agissent sur les récepteurs α₂, soit par un phénomène de bloquage, soit par un effet agoniste. […] Cet effet s'apparente donc à celui de la Yohimbine.
Chez le chien anesthésié, l'injection des produits selon l'invention provoque une hypertension durable, à des doses relativement faibles, allant de 0,05 à 1 mg/kg I.V.

The conditions of data set [4]: in vivo.
The next data set deals with récepteurs α₂. To be noted: lizard; Carter and Shuster, Br. J. Pharmacol. (1982), 75, 169-176; cited from earlier work.

Sequence of NAd (P23975 whole entry): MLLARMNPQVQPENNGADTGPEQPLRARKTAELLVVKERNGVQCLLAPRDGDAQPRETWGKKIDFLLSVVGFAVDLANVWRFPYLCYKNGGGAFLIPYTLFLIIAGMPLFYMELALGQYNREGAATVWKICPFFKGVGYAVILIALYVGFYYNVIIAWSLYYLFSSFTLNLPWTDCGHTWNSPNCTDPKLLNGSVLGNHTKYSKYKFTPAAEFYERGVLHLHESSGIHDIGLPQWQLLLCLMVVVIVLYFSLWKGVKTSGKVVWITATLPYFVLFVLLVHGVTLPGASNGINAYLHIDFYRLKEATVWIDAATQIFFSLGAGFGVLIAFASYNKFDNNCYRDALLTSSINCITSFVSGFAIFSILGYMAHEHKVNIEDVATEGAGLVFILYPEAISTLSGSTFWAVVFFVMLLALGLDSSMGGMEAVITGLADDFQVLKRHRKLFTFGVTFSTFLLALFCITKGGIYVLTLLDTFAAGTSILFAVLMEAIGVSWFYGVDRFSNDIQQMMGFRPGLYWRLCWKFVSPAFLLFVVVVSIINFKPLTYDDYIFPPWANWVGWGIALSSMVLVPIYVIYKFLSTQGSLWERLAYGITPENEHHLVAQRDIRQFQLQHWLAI
Sequence of 5-HT (P31645 whole entry): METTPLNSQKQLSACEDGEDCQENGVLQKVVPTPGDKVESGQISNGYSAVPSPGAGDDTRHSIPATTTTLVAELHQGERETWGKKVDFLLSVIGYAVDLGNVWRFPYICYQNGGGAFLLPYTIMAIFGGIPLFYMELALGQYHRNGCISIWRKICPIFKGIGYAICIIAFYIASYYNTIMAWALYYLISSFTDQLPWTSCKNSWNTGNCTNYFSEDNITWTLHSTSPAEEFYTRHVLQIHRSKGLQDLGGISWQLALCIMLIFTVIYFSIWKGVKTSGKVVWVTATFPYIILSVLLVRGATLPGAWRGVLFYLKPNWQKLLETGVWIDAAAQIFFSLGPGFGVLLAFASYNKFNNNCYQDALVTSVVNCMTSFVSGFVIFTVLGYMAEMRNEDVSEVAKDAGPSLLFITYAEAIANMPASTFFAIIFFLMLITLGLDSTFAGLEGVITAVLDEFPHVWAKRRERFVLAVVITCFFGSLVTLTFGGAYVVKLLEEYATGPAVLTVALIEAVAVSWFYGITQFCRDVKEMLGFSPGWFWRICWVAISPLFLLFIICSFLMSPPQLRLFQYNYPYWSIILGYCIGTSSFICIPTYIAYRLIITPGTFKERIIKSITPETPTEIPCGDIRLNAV
Sequence of DA (Q01959 whole entry): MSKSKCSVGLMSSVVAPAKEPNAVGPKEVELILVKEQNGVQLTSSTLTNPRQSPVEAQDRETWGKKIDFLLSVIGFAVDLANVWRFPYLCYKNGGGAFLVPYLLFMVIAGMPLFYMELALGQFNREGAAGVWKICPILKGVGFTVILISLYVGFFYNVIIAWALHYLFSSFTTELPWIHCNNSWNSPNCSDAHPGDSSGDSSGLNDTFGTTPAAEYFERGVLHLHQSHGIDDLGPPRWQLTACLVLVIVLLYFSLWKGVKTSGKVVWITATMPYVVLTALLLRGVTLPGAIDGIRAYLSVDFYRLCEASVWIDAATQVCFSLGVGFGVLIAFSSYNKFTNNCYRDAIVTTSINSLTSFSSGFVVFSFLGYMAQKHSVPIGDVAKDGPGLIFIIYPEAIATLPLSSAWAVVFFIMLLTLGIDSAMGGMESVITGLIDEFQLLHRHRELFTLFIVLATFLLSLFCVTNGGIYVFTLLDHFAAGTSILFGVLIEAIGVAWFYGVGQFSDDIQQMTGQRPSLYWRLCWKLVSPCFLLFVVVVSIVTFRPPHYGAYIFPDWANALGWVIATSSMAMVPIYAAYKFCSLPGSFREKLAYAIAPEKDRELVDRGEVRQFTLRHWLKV

In the case of `NC1=NC(COc2ccccc2)CO1` (racemic) [ex. 6, 4-phénoxy-méthyl 2-amino-oxazoline], the “UPTAKE NEUROTRANSMETTEUR IN VITRO IC 50 M NAd” value on NAd was “nul à 10^-5”. The IC50 on 5-HT and on DA was more than 10000 nM throughout.
Turning to `NC1=NC(Cc2ccc(Cl)cc2)CO1` (racemic) [ex. 10], the IC50 at NAd is 4000 nM; on 5-HT, 4000 nM; at RECEPTEURS α2 it was 44 nM; on DA, 2300 nM.
On to `NC1=NC(Cc2ccccc2Cl)CO1` (racemic) [ex. 11], for which the IC50 at NAd was 2500 nM; on 5-HT, more than 10000 nM; at RECEPTEURS α2, 2.7 nM; on DA it was more than 10000 nM.
Regarding `NC1=NC(CCc2ccccc2)CO1` (racemic) [ex. 13], the IC50 was 230 nM on NAd and more than 100 nM on RECEPTEURS α2. Moreover, the “UPTAKE NEUROTRANSMETTEUR IN VITRO IC 50 M 5-HT” value at 5-HT (5-HT = 5-hydroxytryptophane (so in the source)) is on record as “nul à 10^-6”. The “UPTAKE NEUROTRANSMETTEUR IN VITRO IC 50 M DA” value at DA is reported as “nul à 10^-6”.
On to `NC1=NC(Cc2ccc(O)cc2)CO1` (racemic) [ex. 20], for which the IC50 on RECEPTEURS α2 was more than 100 nM.
Turning to `NC1=NC(Cc2ccccc2)CO1` (single isomer, unassigned) [ex. 12], the IC50 on NAd is 400 nM; on 5-HT, more than 10000 nM; on RECEPTEURS α2, 4 nM; at DA it was 4000 nM.
Turning to `NC1=NC(Cc2ccccc2Cl)CO1` (single isomer, unassigned) [ex. 23], the IC50 at RECEPTEURS α2 is 3.3 nM.
Turning to `Clc1cccc(Cl)c1N=C1NCCN1` [CLONIDINE], in [1], the exploration result was “diminuent l'exploration”. Moreover, the température centrale result in [2] is “baisse de température”. Also, the “activité vasomotrice (vasodilatation ou vasoconstriction primaire)” value in data set [3] was “activité vasoconstrictive d'emblée”. Also, on RECEPTEURS α2, the IC50 worked out at 1 nM. Besides, the “activité diabétogène” value in [4] is on record as “activité diabétogène expérimentale”. Further, the “noircissement qui résulte du traitement par le MSH” value in the data set with récepteurs α₂ is “antagonisé”.
As for `c1ccc2c(c1)OCC(C1=NCCN1)O2` (centres unmarked) [IDAZOXAN, reference compound], the IC50 at RECEPTEURS α2 amounted to 29 nM.
Same read-out and setting: with `Cc1ccc(N(CC2=NCCN2)c2cccc(O)c2)cc1` [PHENTOLAMINE, reference compound] the figure was 22 nM.
Take `NC1=NC(COc2ccccc2Cl)CO1` (centres unmarked) [ex. 5, 4-(2-chlorophénoxyméthyl) 2-amino-oxazoline]: the IC50 is more than 10000 nM on NAd, 2800 nM on 5-HT, 33 nM at RECEPTEURS α2 and 7200 nM on DA.
For the molecule `COc1ccc(OCC2COC(N)=N2)cc1` (centres unmarked) [ex. 7, 4-(4-méthoxyphenoxymethyl) 2-amino-oxazoline], on NAd, the “UPTAKE NEUROTRANSMETTEUR IN VITRO IC 50 M NAd” value is “nul à 10^-5”. Besides, the IC50 on 5-HT is more than 10000 nM; at RECEPTEURS α2, more than 100 nM. At DA, the “UPTAKE NEUROTRANSMETTEUR IN VITRO IC 50 M DA” value is given as “nul à 10^-5”.
Regarding `NC1=NC(COCc2ccccc2)CO1` (centres unmarked) [ex. 8, 4-(benzyloxy-méthyl) 2-amino-oxazoline], the “UPTAKE NEUROTRANSMETTEUR IN VITRO IC 50 M NAd” value on NAd is recorded as “nul à 10^-5”. The IC50 was more than 10000 nM at 5-HT and more than 100 nM on RECEPTEURS α2. The “UPTAKE NEUROTRANSMETTEUR IN VITRO IC 50 M DA” value at DA was “nul à 10^-5”.
